Test results from patent publication US10786690B2, “Amide derivatives of polycaffeoylquinic acids, process for producing same and uses thereof” (TEMISIS, priority 2016, dated 2020).
Where “and” joins values, the source holds several entries; their conditions need not be identical. Identical values can stand only once.

Key:
[1] = test system: Normal Human Epidermal Keratinocytes (NHEKs); assay: Microscopic observation of NHEK cell survival 48 h after inflammatory treatment; format: cell-based
Experimental: The cells, treated and not treated by the compounds to be tested, were observed under an optical microscope 48 h after the following inflammatory treatment: 10 ng/mL PMA/H2O+2 μM calcium ionophore A23187/DMSO.
NHEKs were brought into contact or not with the compounds to be tested. After 2 h, the cells underwent or not an inflammation treatment (10 ng/mL PMA/H2O+2 μM calcium ionophore A23187/DMSO).
The cells were observed under an optical microscope 48 h after the inflammatory treatment.

TNF-α = TNF-α production by NHEKs in the inflammatory state (PMA + calcium ionophore, 0.06 mM Ca2+), ELISA; format: cell-based, human; conditions: PMA + calcium ionophore A23187 24 h, compounds 50 μM, dexamethasone 10 μM, relative to induced control
Experimental: (§1) The study was carried out on Normal Human Epidermal Keratinocytes (NHEKs) (Lonza, CC-2507, origin: foreskin) in monolayer culture in Epilife medium (Invitrogen, M-EPI-500-A) containing the components of the Human Keratinocyte Growth Supplement (HKGS) mixture (Invitrogen, S-001-K) added separately, except hydrocortisone having anti-inflammatory properties.
(§2) For the quantification of IL-8 and PGE2, the inflammatory state of the NHEKs in culture was induced by treatment with PMA (phorbol myristate acetate/10 ng/ml/H2O) for 24 h. Induction of IL-6 was achieved by treatment with PMA (10 ng/ml/H2O) combined with calcium ionophore A23187 (2 μM/DMSO) in medium containing calcium at a concentration of 0.8 mM. […]
(§3) Quantification of the various inflammatory mediators was carried out with specific kits, based on a standard curve, according to the instructions provided by the kits' suppliers, R&D Systems and Cayman Chemical.
(§4) Before induction of the inflammatory state, the NHEKs were treated with the compounds and reference molecules for 2 h. The inflammatory state was then induced according to the conditions described in the methodology section, the culture supernatants were collected, and the various inflammatory mediators were quantified by the ELISA technique. […]

[2] = test system: Normal Human Dermal Fibroblasts (NHDFs); assay: qRT-PCR gene expression in Normal Human Dermal Fibroblasts; format: cell-based; conditions: 4 μM, 24 h
Experimental: The study consisted in measuring the effects of compound PAT1657 by qRT-PCR on the expression of 94 genes involved in dermal biology, connective tissue remodelling and ageing.
The protocol consisted in applying compound PAT1657 for 24 h in the culture medium of Normal Human Dermal Fibroblasts (NHDFs) in monolayer and analysing the various RNA populations to identify the genes differentially expressed by real-time qRT-PCR.
The study was carried out on Normal Human Dermal Fibroblasts (NHDFs) (ATCC, CRL-2522, origin: foreskin) at about 40% of their proliferative potential and grown in monolayer in DMEM medium (Invitrogen, 31885-049) containing antibiotics (penicillin/streptomycin, Invitrogen, 15140-122) but not containing serum. The cells were maintained in a humid atmosphere at 37° C. containing 5% CO2.
Compound PAT1657 was applied in the NHDF culture medium for 24 h (n=3). Controls treated with the solvent DMSO (1% for the NHDFs) in which the active agents were prepared were also analysed. At the end of the treatments, total RNA populations were extracted, their integrity was analysed by capillary electrophoresis, and gene expression differences were analysed by qRT-PCR using 96-well TaqMan microfluidic cards (custom produced by Applied Biosystems), targeting key functions of the dermis and epidermis. The technical details of the implementation of the present paragraph are explained in the “Materials and methods” section of Example 1 of patent application FR1650745 and more specifically the sub-section titled “Analysis of gene expression changes” (page 26 line 22 to page 28 line 9).
The gene expression changes induced by the active agents are expressed as relative quantity (RQ) based on the respective DMSO solvent controls.

LTB4 = LTB4 production by NHEKs in the inflammatory state (arachidonic acid + calcium ionophore), ELISA; format: cell-based, human; conditions: arachidonic acid 1 μM + calcium ionophore A23187 2 h, compounds 50 μM, NDGA 2 μM, relative to induced control
Experimental: as §1
The induction of LTB4 production having a very fast kinetics, the scheme was adapted. In this case, the inflammatory state was induced for 2 h by applying arachidonic acid (a.a./1 μM/ethanol) combined with calcium ionophore A23187 (2 μM/DMSO). Nordihydroguaiaretic acid (NDGA) was used as reference molecule (2 μM/ethanol).
(§5) The effect of the compounds was studied by applying them to the keratinocyte culture medium 2 h prior to induction of the inflammatory state as well as during induction (2 h for LTB4, 24 h for IL-8, PGE2, IL-6 and TNF-α).
(§6) Each condition was carried out in triplicate cultures and the supernatants were recovered at the end of the various treatments.
as §3
(§7) Before induction of the inflammatory state, the NHEKs were treated with the compounds and reference molecules for 2 h. The inflammatory state was then induced according to the conditions described in the methodology section, the culture supernatants were collected, and the various inflammatory mediators were quantified by the ELISA technique.
The effects of the compounds on LTB4 production are shown in FIG. 8 and are expressed as a percentage of the treatment with arachidonic acid (a.a.) combined with calcium ionophore A23187 set at 100%.

PGE2 = PGE2 production by NHEKs in the inflammatory state (PMA), ELISA; format: cell-based, human; conditions: PMA 10 ng/ml 24 h, compounds 50 μM, indomethacin 10 μg/ml, relative to PMA induced control (100%)
Experimental: as §1
For the quantification of IL-8 and PGE2, the inflammatory state of the NHEKs in culture was induced by treatment with PMA (phorbol myristate acetate/10 ng/ml/H2O) for 24 h. Induction of IL-6 was achieved by treatment with PMA (10 ng/ml/H2O) combined with calcium ionophore A23187 (2 μM/DMSO) in medium containing calcium at a concentration of 0.8 mM. TNF-α secretion was induced by a combination of PMA (10 ng/ml/H2O) and calcium ionophore A23187 (2 μM/DMSO) applied for 24 h (TNF-α) in medium containing 0.06 mM calcium. The reference molecules used are dexamethasone (10 μM/H2O) and indomethacin (10 μg/ml/ethanol).
as §5, §6, §3, §7
The effect of the compounds on PGE2 production is presented in FIG. 5 and is expressed as a percentage of the PMA treatment set at 100%.

IL-8 = IL-8 production by NHEKs in the inflammatory state (PMA), ELISA; format: cell-based, human; conditions: PMA 10 ng/ml 24 h, compounds 50 μM, dexamethasone 10 μM, relative to PMA induced control (100%)
Experimental: as §1, §2, §3, §4

CCCCCCCCNC(=O)[C@]1(O)C[C@@H](OC(=O)/C=C/c2ccc(O)c(O)c2)[C@@H](O)[C@H](OC(=O)/C=C/c2ccc(O)c(O)c2)C1 [PAT1657, (2E,2′E)-((1R,2S,3R,5S)-2,5-dihydroxy-5-(octylcarbamoyl)cyclohexane-1,3-diyl) bis(3-(3,4-dihydroxyphenyl)acrylate)]
Result at 48 h: cell survival ([1]; NHEK cultures 48 h after inflammatory treatment (10 ng/mL PMA + 2 μM calcium ionophore A23187), microscopic observation): Confluent culture: 100% | effect on cell survival / cellular protection against inflammation ([1]; NHEK cultures 48 h after inflammatory treatment, summary in words): strong cellular protection against inflammation | TNF-α production (TNF-α): most marked effects and are more effective than dexamethasone itself | expression of gene GSS ([2]; in words only): overexpressed | RQ (relative expression), gene CCL5 ([2]; relative to 1% DMSO vehicle): 28.13 | RQ (relative expression), gene DDIT3 ([2]; relative to 1% DMSO vehicle): 2.81 | RQ (relative expression), gene FTL ([2]; relative to 1% DMSO vehicle): 2.1 and 2.08 | RQ (relative expression), gene GADD45A ([2]; relative to 1% DMSO vehicle): 3.68 | RQ (relative expression), gene KLF4 ([2]; relative to 1% DMSO vehicle): 1.9 and 1.93 | RQ (relative expression), gene MMP1 ([2]; relative to 1% DMSO vehicle): 6.9 and 6.91 | RQ (relative expression), gene MMP3 ([2]; relative to 1% DMSO vehicle): 3.1 and 3.12 | RQ (relative expression), gene MTNR1A ([2]; relative to 1% DMSO vehicle): 1.46 | RQ (relative expression), gene NANOG ([2]; relative to 1% DMSO vehicle): 4.7 and 4.67 | RQ (relative expression), gene NOX1 ([2]; relative to 1% DMSO vehicle): 1.46 | RQ (relative expression), gene POU5F1 ([2]; relative to 1% DMSO vehicle): 5.1 | RQ (relative expression), gene RBP2 ([2]; relative to 1% DMSO vehicle): 1.46 | RQ (relative expression), gene RORA ([2]; relative to 1% DMSO vehicle): 4.4 and 4.41 | RQ (relative expression), gene SIRT1 ([2]; relative to 1% DMSO vehicle): 2.02 | RQ (relative expression), gene SOD2 ([2]; relative to 1% DMSO vehicle): 4.7 and 4.66 | RQ (relative expression), gene TXNRD1 ([2]; relative to 1% DMSO vehicle): 2.8 and 2.82 | RQ (relative expression), gene VEGFA ([2]; relative to 1% DMSO vehicle): 8.3 and 8.28 | LTB4 production (LTB4): block/decrease, in a very highly significant manner | PGE2 production (PGE2): very highly significantly decrease | IL-8 production (IL-8): inhibit/reduce IL-8 production to the baseline level
